Test results as given in patent publication US20030153056A1, “Glycosyltransferase proteins” (priority 2000, published 2003).
Positions count from the first letter of the chain named. Each block holds one molecule with its values, some of them ahead of it.

Legend:
[1] = biological target: T1, human β3GnT2 (Homo sapiens, UniProt Q9NY97); assay: human β3GnT2 activity with glycolipid acceptors; format: biochemical; details: not shown
T1 sequence (Q9NY97 1-397): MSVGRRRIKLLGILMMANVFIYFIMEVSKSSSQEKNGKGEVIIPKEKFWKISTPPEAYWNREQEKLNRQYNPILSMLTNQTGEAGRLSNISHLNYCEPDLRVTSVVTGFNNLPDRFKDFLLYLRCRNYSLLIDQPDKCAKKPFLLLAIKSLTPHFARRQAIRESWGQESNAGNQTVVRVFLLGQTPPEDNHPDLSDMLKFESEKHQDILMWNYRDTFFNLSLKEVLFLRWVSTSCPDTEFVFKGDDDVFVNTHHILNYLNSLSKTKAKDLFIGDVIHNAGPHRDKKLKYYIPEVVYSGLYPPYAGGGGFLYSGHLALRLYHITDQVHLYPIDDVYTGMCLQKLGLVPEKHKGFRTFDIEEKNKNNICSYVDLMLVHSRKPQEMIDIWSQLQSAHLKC
From the text: It is interesting to note that Brainiac also functions with Lac-Cer, a glycolipid which has never been described from insects. Brainiac is the ancestral gene of a very large homologous β3glycosyltransferase gene family in mammalian cells, and the members of this family with closest sequence similarity to Brainiac is represented by a family of β3GlcNAc-transferases with similar specificity for Lac-Cer (Shiraishi et al., 2001, J. Biol. Chem., 276: 3498-3507.). One of these designated human β3GnT2 was analysed in detail and shown to use Lac-Cer but not Mac-Cer (not shown).

[2] = biological target: T2, Brainiac (Drosophila melanogaster, UniProt Q24157); assay: Brainiac activity towards glycosphingolipids; format: biochemical; details: 10 μg purified glycolipid, 300 μM UDP-14C-N-acetylglucosamine, FIG. 8
T2 construct: The full coding region of Brainiac was prepared by PCR using genomic DNA; made in house; host or cells: High Five insect cells (baculovirus vector pVL1393); microsomal fractions
T2 sequence (Q24157 1-325): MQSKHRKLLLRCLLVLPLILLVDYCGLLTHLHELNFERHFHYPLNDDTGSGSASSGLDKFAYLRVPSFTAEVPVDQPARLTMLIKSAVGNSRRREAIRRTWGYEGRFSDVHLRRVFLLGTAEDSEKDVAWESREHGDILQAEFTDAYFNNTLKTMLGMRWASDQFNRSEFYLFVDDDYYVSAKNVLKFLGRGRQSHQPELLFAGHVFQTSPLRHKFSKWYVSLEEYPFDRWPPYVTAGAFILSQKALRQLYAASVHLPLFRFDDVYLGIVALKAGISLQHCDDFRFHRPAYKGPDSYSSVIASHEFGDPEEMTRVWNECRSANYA
Experimental: FIG. 8: Brainiac activity towards glycosphingolipids purified from insect cells. Microsomal fractions (1.5 mg) of insect cells transfected with pVL-brainiac and pVL-fringe were used as the enzyme source. Reactions contained 10 μg of purified glycolipids and 300 μM of UDP-^14C-N-acetylglucosamine (8200 cpm/nmol). Products were purified on C18-silica cartridges, spotted on HPTLC-plates, developed in 60:35:8 (chloroform:methanol:water) and exposed for autoradiography.
(§1) Brainiac-full was cloned into baculovirus vector pVL1393 (Pharmingen) and expressed in High Five cells. Microsomal fractions were prepared as described above for Fringe but with 0.5% N-octylglucoside as Triton X-100 and related detergents destroyed the activity. Initial analysis of activity was done with five monosaccharides and four donor sugar nucleotides as described in FIG. 5 for Fringe. Assays with the acceptors listed in Table 1 were performed as described for Fringe except no additional detergent was added. Reactions with glycolipid substrates were performed in the presence of 0.5% N-octylglucoside in 50 ul reaction volume containing 10 μg glycolipid.
Glycolipids were obtained from Sigma or purified from High Five insect cells grown in serum free medium. […]

[3] = biological target: T2, Brainiac; assay: Initial analysis of Brainiac glycosyltransferase activity with monosaccharides and four UDP sugar nucleotides; format: biochemical; details: panel of monosaccharides, donor UDP-GlcNAc, High Five cell microsomes
Experimental: as §1
In the latter case the acceptor sugar was not determined.

[4] = biological target: T3, Brainiac β1-3-N-acetylglucosaminyltransferase (Drosophila melanogaster, UniProt Q24157); assay: Substrate specificities of Brainiac β1-3-N-acetylglucosaminyltransferase (acceptor panel, microsomal preparations); format: biochemical; details: microsomes of pVL-Brainiac infected High Five cells, background of irrelevant construct subtracted, donor UDP-GlcNAc
T3 construct: The full coding region of Brainiac was prepared by PCR using genomic DNA; made in house; host or cells: High Five insect cells (baculovirus vector pVL1393); microsomal fractions
T3 sequence (Q24157 1-325): T2 sequence (Q24157 1-325)

[5] = biological target: T4, Fringe (Drosophila melanogaster, UniProt Q24342); assay: Fringe glycosyltransferase assay, transfer of 14C-labelled UDP-donor sugars onto acceptor sugars; format: biochemical; details: for Acceptor for Fringe, in words: microsomal fractions of High Five cells
T4 construct: made in house; host or cells: High Five insect cells (baculovirus vector pVL1393); solubilised microsomal fractions
T4 sequence (Q24342 1-412): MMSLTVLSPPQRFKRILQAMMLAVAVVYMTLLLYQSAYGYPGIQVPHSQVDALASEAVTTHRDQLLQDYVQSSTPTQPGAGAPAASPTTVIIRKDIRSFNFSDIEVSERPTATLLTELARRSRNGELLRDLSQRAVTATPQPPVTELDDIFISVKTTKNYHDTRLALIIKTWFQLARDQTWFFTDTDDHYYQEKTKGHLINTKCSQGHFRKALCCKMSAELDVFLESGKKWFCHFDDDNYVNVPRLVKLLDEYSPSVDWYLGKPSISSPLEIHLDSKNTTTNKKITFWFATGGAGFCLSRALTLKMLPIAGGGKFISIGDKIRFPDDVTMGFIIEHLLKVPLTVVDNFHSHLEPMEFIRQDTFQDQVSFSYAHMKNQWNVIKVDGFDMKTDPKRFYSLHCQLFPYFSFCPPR
Experimental: Fringe-Myc and Fringe-NNN-myc were cloned into baculovirus vector pVL1393 (Pharmingen) and expressed in High Five™ cells. Microsomal fractions were prepared by hypotonic lysis ultracentrifugation and solubilised 1:2 (vol/vol) in 20 mM Cacodylate pH 6.5, 1% Triton-CF54, 5 MM MnCl2 containing Leupeptin and Aprotinin as described previously (Amado et al., 1998). For glycosyltransferase assays, 5 μl of this suspension were added to a total of 50 μl reaction mixture containing 25 mM Cacodylate pH 6.5, 0.25% Triton-CF54, 5 mM MnCl2, 500 mM free sugar, 100 μM UDP-^14C-sugar (1280-2000 cpm/nmol). Reactions were incubated at 37° C. for 45-60 minutes, followed by Dowex-1 anion exchange chromatography and scintillation counting of 50% of the flow-through.
To ask whether Fringe has intrinsic glycosyltransferase activity, Fringe-wt and Fring-NNN were produced by baculovirus-infection of insect cells. Microsomal fractions enriched for Golgi membranes were partially solubilized and assayed for the ability to the expressed proteins to catalyze the transfer of ^14C-labelled UDP-donor sugars onto acceptor sugars. A variety of different donor/acceptor combinations were tested (FIG. 5b).
Enzyme activity was measured by transfer of ^14C-labelled donor sugars (as UDP-conjugates) onto acceptor sugars. In FIG. 5b, average results from two experiments are shown. Donors tested were UDP-Glucose (Glc), UDP-Galactose (Gal), UDP-N-acetyl-Glucosamine (GlcNAc) and N-acetyl-Galactosamine (GalNAc). Acceptors tested were Glucose, Galactose, GlcNAc, GalNAc and Fucose.

[6] = test system: Notch activation in the wing imaginal disc; assay: Ectopic expression under patched GAL4 control in wing imaginal disc, Wingless expression; format: in vivo, Drosophila; details: expressed under patched GAL4 control
From the text: (e), (f), (g) Wing imaginal discs labelled to visualise Wingless protein (left panel) and the myc epitope tag (right panel). (e) patched^GAL4/+wing disc. Wingless is expressed in a continuous stripe along the DV boundary. (f) patched^GAL4/UAS-Fringe-GalNT3-myc. Golgi-tethered Fringe-GalNT3-myc expression in the patched^GAL4 stripe is shown in the right-hand panel. The endogenous Wingless stripe is interrupted where the Golgi-tethered Fringe stripe crosses the DV boundary (left panel). At the anterior-posterior compartment boundary the Golgi-tethered Fringe stripe abuts the endogenous Wingless stripe and induces ectopic expression of Wingless in the ventral compartment. This pattern is identical to that reported for ectopic expression of wild-type (secreted) Fringe shown in panel (g) for the Golgi-tethered Fringe D: dorsal compartment. V ventral compartment. Posterior is to the right. […] These effects precisely match those caused by expression of wild-type Fringe (not shown; see Panin et al., 1997; Kim et al., 1995). […] Cells were transfected to express Notch, wild-type Fringe-wt-myc, or mutant Fringe-NNN-myc as indicated. Cells transfected with empty vector were used as a control. Fringe-NNN-Myc has no activity in the binding assay, despite being expressed at higher levels than Fringe-wt-Myc.

[7] = biological target: T5, Notch (Drosophila melanogaster, UniProt P07207); assay: Delta-AP binding to Notch transfected S2 cells; format: cell-based; details: co-expressed with Notch in S2 cells
T5 construct: expressed in transfected cells; host or cells: Drosophila Schneider S2 cells, transient transfection, pRmHa3
Experimental: Cell culture and Binding assays: cDNAs for expression in Schneider S2 cells were cloned into pRmHa3. Cells were transiently transfected by the CaPO4 method using 6-8 μg of DNA per well in 6 well plates. Expression was induced by addition of 0.7 mM CuSO4 for 2 days. Conditioned medium was collected from Notch-AP and Delta-AP transfected cells 2 days after induction. AP activity was adjusted to normalise activity levels of Notch-AP or Delta-AP expressed with or without Fringe. Binding was performed as described in Cheng and Flanagan, 1994. In brief, AP-containing supernatants were supplemented with 0.1% NaN3, and incubated 90 min at room temperature. Cells were washed 5 times in HBSS containing 0.05% BSA and 0.1% azide, and lysed in 10 mM Tris pH 8, 1% Triton-X100. Endogenous AP was inactivated by heat treatment for 10 min 60° C. and the lysates clarified by centrifugation. AP activity was measured in 1M Diethanolamine, 1 mM MgCl2, 5 mM para-nitrophenyl phosphate. Bound AP activity was quantified in 96 well plates using a microplate reader and Micromanager software (BioRad). An additional replicate of each transfection was prepared for immunoblot analysis. Lysates were prepared separately for Immunoblot analysis to allow inclusion of protease inhibitors which are not used in the binding assay. To measure interaction of Delta-AP with transiently transfected S2 cells, bound AP activity was quantified in an enzymatic colour reaction. Cells transfected with empty vector were used as a control. […] AP activity is shown in mOD units/minute in cell extracts (replicate experiments are shown in this figure). In this experiment Fringe stimulated binding by over 50 fold. […] However, the assay allows measurement of Fringe-dependent stimulation of Delta-AP binding.

T5 sequence (P07207 53-2703): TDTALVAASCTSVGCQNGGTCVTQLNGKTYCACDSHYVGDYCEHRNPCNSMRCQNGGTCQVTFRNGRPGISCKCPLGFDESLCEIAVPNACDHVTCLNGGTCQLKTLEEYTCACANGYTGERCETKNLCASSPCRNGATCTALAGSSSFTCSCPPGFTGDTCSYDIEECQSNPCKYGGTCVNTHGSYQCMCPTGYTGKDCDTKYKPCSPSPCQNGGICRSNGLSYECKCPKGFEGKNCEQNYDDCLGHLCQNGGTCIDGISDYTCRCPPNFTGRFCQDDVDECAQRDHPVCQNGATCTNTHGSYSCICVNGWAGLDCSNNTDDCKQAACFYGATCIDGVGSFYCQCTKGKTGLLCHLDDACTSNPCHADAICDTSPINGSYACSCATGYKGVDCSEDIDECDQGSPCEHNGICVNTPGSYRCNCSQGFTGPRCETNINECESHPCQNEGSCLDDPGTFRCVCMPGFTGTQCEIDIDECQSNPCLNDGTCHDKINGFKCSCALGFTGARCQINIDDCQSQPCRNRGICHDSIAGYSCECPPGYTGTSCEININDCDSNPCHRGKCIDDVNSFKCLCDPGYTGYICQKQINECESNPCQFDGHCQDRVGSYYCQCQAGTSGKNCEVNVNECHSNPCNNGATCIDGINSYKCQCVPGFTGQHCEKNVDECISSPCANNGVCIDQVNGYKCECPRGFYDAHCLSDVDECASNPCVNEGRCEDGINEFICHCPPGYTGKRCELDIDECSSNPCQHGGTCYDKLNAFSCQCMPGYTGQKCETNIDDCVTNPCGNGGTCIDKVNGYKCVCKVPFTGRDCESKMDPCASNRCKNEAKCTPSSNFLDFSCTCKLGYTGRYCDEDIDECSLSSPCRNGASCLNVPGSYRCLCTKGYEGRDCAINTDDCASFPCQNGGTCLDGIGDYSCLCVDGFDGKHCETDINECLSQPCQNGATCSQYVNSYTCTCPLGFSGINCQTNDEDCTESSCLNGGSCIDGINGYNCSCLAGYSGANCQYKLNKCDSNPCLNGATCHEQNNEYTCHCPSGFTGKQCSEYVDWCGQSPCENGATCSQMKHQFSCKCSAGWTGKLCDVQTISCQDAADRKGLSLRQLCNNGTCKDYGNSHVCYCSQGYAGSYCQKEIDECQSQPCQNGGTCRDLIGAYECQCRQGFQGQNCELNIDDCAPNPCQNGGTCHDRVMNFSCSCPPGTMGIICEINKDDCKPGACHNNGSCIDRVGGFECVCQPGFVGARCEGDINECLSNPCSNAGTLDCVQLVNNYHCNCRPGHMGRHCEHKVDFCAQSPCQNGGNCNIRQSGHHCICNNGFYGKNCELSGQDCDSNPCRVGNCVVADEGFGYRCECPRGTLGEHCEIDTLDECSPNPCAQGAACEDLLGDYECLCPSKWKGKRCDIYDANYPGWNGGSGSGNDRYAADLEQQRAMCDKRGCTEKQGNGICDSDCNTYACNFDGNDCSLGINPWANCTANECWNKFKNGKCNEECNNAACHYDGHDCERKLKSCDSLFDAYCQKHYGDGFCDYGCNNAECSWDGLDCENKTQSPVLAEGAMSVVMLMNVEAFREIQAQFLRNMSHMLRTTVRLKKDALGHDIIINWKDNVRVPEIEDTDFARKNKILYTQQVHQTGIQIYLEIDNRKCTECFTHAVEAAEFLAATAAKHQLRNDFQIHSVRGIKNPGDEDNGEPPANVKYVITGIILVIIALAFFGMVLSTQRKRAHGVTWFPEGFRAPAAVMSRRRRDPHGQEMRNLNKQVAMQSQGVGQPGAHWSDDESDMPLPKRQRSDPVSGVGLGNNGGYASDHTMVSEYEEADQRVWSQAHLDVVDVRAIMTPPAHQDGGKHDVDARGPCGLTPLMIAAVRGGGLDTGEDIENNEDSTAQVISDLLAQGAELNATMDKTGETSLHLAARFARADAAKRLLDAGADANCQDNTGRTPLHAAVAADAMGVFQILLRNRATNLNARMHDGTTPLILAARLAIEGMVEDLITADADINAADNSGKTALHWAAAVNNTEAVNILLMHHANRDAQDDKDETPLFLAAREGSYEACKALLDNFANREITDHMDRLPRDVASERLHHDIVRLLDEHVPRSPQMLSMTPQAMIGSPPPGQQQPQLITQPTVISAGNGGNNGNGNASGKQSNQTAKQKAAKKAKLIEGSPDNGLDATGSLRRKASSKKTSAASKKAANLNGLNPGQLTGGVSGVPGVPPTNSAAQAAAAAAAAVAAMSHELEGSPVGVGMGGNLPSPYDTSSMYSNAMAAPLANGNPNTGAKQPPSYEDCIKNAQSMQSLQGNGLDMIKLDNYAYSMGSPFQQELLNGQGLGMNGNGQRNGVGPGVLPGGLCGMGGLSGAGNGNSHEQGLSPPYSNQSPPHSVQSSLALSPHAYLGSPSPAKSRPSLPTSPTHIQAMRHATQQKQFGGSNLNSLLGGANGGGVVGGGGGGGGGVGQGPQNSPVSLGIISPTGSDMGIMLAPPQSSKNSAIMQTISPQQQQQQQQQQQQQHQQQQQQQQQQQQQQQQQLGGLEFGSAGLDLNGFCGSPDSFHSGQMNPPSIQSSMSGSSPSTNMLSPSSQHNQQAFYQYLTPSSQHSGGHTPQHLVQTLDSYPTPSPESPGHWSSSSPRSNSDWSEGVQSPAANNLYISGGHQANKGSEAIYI

Molecule: Galβ1-4Glcβ1-Cer
Glycolipid used by human β3GnT2, in words [1]: use Lac-Cer
Glycolipid substrate for Brainiac, in words [2]: served as a substrate

Molecule: OC[C@H]1OC(O)[C@@H](O)[C@@H](O)[C@@H]1O (stereo partly drawn) [D-Man]
Acceptor for Brainiac, in words (initial analysis) [3]: best acceptor
Brainiac activity with substrate ([4]; substrate 2 mM): 0.28 nmol/h/mg
Brainiac activity with substrate ([4]; substrate 20 mM): 1.70 nmol/h/mg

Molecule: C[C@H](O)[C@@H](O)[C@@H](O)[C@H](O)C=O [Fucose]
Glycosyltransferase activity of Fringe-wt microsome lysate over background level observed with Fringe-NNN ([5]; donor UDP-N-acetylglucosamine (GlcNAc), average of two experiments, FIG. 5b): 18 fold

B1: Fringe-NNN: Fringe-myc with amino acids D236, 237 and 238 converted to asparagine residues (protein, UniProt Q24342 1-412, looked up, variant D236N D237N D238N)
Fringe glycosyltransferase: T4 sequence (Q24342 1-412) with D236N, D237N, D238N
modifications: C-terminal myc tag
notes: Fringe-myc with amino acids D236, 237 and 238 converted to asparagine residues
Effect on Wingless expression / Notch activation in wing disc, in words [6]: did not cause Notch activation in the ventral compartment
Effect on Delta-AP binding, in words [7]: did not increase Delta-AP binding above background levels
Effect on Delta-AP binding, in words ([7]; listed as Fringe-NNN-Myc): no activity

More lines, now with the values ahead:

Acceptor for Brainiac, in words (initial analysis) [3]: poor substrate
Brainiac activity with substrate ([4]; substrate 2 mM): 0.00 nmol/h/mg
Brainiac activity with substrate ([4]; substrate 20 mM): 0.05 nmol/h/mg
Molecule: C[C@@H]1OC(O)[C@@H](O)[C@H](O)[C@@H]1O (stereo partly drawn) [L-Fuc]

Acceptor for Fringe, in words [5]: did not act as acceptors
Brainiac activity with substrate ([4]; substrate 2 mM): 0.02 nmol/h/mg
Brainiac activity with substrate ([4]; substrate 20 mM): 0.03 nmol/h/mg
Molecule: C[C@@H]1O[C@@H](Oc2ccc([N+](=O)[O-])cc2)[C@@H](O)[C@H](O)[C@@H]1O [L-Fucα1-pNph]

Glycolipid used by human β3GnT2, in words [1]: not Mac-Cer
Glycolipid substrate for Brainiac, in words [2]: efficient substrate
Molecule: Manβ1-4Glcβ1-Cer

Acceptor for Fringe, in words [5]: did not act as acceptors
Molecule: C[C@@H]1O[C@H](Sc2ccc([N+](=O)[O-])cc2)[C@@H](O)[C@H](O)[C@@H]1O [β-L-Fuc-1-thio-p-Nph]
